Reference: paper PMC12679539, “Synthesis and evaluation of nitroheterocyclic aromatic adamantane amides with trypanocidal activity. Part II” (RSC Medicinal Chemistry, 2025)

Tested on: L. infantum promastigotes
Assay: Activity against Leishmania infantum promastigotes (resazurin assay)
Assay type: cell-based, Leishmania infantum (MHOM/MA/67/ITMAP-263)
Settings: Leishmania infantum; promastigotes, 72 h; 95% CI in brackets
Method: Promastigotes from the L. infantum strain (MHOM/MA/67/ITMAP-263) were cultivated in 5 ml of Schneider's insect medium, which was supplemented with 10% heat-inactivated fetal bovine serum (FBS), 200 U ml^−1 of penicillin/streptomycin, 6 μg ml^−1 of phenol red, and 5 mM of HEPES. The cultures were maintained in an incubator at 27 °C and diluted to a concentration of 2 × 10^5 cells per ml every 5 days. For the assays the parasites used were equivalent to late/log with two or three days of culture.
The efficacy of the compounds against L. infantum promastigotes was evaluated using a resazurin-based assay. Parasites were added to 100 μl of serial dilutions of the compounds in supplemented complete medium at a cell density of 5 × 10^5 ml^−1. As a quality control, a dose–response curve with the antileishmanial drug miltefosine was included in all assays. The final volume of each assay was 200 μl per well, and each condition was tested in duplicate. After a 72-hour incubation under specific conditions for each parasite, 20 μl of a 0.5 mM resazurin solution was added, and the plates were incubated for an additional 4 hours under the same conditions. Fluorescence was measured at 544 nm for excitation and 590 nm for emission using a Synergy 2 Multi-Mode Reader (Biotek, Winooski, VT, USA). Results were expressed as the percentage of parasite growth inhibition compared to controls (untreated parasites) and represent the average of at least three independent experiments. The effect was evaluated by determining the IC50 value (the concentration required to inhibit 50% growth), calculated using non-linear regression curves via GraphPad Prism version 8.1.1 for Windows (GraphPad Software, San Diego, CA, USA).

| Compound | IC50 [µM] |
| --- | --- |
| O=C(NCCCn1cnc([N+](=O)[O-])n1)c1ccc(C23CC4CC(CC(C4)C2)C3)cc1 [6d, 4-(1-Adamantyl)-N-[3-(3-nitro-1H-1,2,4-triazol-1-yl)propyl] benzamide] | 0.27 |
| O=C(Cn1ccnc1[N+](=O)[O-])NCCc1ccc(C2C3CC4CC(C3)CC2C4)cc1 (stereo not drawn) [4c, N-[4-(2-Adamantyl)phenethyl]-2-(2-nitro-1H-imidazol-1-yl)acetamide] | 37.9 |
| O=C(Cn1ccnc1[N+](=O)[O-])NCCc1ccc(C23CC4CC(CC(C4)C2)C3)cc1 [3c, N-[4-(1-Adamantyl)phenethyl]-2-(2-nitro-1H-imidazol-1-yl) acetamide] | 22.1 |
| O=C(NCCc1ccc(C2C3CC4CC(C3)CC2C4)cc1)c1ccc([N+](=O)[O-])o1 (stereo not drawn) [2c, N-[4-(2-Adamantyl)phenethyl]-5-nitrofuran-2-carboxamide] | 0.05 |
| O=C(Cc1ccc(C23CC4CC(CC(C4)C2)C3)cc1)NCCCn1ccnc1[N+](=O)[O-] [5b, 2-[4-(1-Adamantyl)phenyl]-N-[3-(2-nitro-1H-imidazol-1-yl)propyl] acetamide] | 4.81 |
| O=C(NCCc1ccc(C23CC4CC(CC(C4)C2)C3)cc1)c1ccc([N+](=O)[O-])o1 [1b] | 0.66 |

Same assay, conditions: THP-1 CC50 / L. infantum promastigote IC50

| Compound | SI (promastigotes) CC50/Li IC50 |
| --- | --- |
| O=C(Cn1ccnc1[N+](=O)[O-])NCCc1ccc(C2C3CC4CC(C3)CC2C4)cc1 (stereo not drawn) [4c, N-[4-(2-Adamantyl)phenethyl]-2-(2-nitro-1H-imidazol-1-yl)acetamide] | SI > 1 |

Tested on: bloodstream-form Trypanosoma brucei
Assay: Activity against bloodstream-form Trypanosoma brucei (Alamar Blue growth inhibition)
Assay type: cell-based, Trypanosoma brucei (strain 427)
Settings: Trypanosoma brucei; bloodstream form; concentration that inhibits growth by 50%; read-out: T. brucei IC50
Method: (§1) Bloodstream form T. brucei (strain 427) were cultured at 37 °C in modified Iscove's medium. Trypanocidal activity was assessed by growing parasites in microtiter plates in the presence of various drug concentrations. […] The plates were incubated for 48 hours at 37 °C and 20 μL Alamar Blue was then added to each well. After an additional overnight incubation, the fluorescence was determined using a Gemini fluorescent plate reader (Molecular Devices). Inhibition of growth was calculated by comparison with control values and IC50 and IC90 values were determined in triplicate using linear regression analysis.

| Compound | IC50 [nM] |
| --- | --- |
| O=C(Cn1cnc([N+](=O)[O-])n1)Nc1ccccc1C12CC3CC(CC(C3)C1)C2 [7c, N-[2-(1-Adamantyl)phenyl]-2-(3-nitro-1H-1,2,4-triazol-1-yl)acetamide] | > 25000 |
| CSc1ccc(OCc2ncc([N+](=O)[O-])n2C)cc1 [Fxd, fexinidazole, reference compound] | 2400 ± 200 |
| O=C(NCCCn1cnc([N+](=O)[O-])n1)c1ccc(C23CC4CC(CC(C4)C2)C3)cc1 [6d, 4-(1-Adamantyl)-N-[3-(3-nitro-1H-1,2,4-triazol-1-yl)propyl] benzamide] | 180 ± 50 |
| O=C(Cn1cnc([N+](=O)[O-])n1)Nc1ccc(C23CC4CC(CC(C4)C2)C3)cc1 [7b, N-[4-(1-Adamantyl)phenyl]-2-(3-nitro-1H-1,2,4-triazol-1-yl)acetamide] | 200 ± 70 |
| O=C(NCCc1ccc(C2C3CC4CC(C3)CC2C4)cc1)c1ccc([N+](=O)[O-])o1 (stereo not drawn) [2c, N-[4-(2-Adamantyl)phenethyl]-5-nitrofuran-2-carboxamide] | 42 ± 8 |

Same assay, conditions: Trypanosoma brucei; bloodstream form; concentration that inhibits growth by 90%; read-out: T. brucei IC90

| Compound | IC90 [nM] |
| --- | --- |
| O=C(Cn1cnc([N+](=O)[O-])n1)Nc1ccccc1C12CC3CC(CC(C3)C1)C2 [7c, N-[2-(1-Adamantyl)phenyl]-2-(3-nitro-1H-1,2,4-triazol-1-yl)acetamide] | > 25000 |
| O=C(NCCCn1cnc([N+](=O)[O-])n1)c1ccc(C23CC4CC(CC(C4)C2)C3)cc1 [6d, 4-(1-Adamantyl)-N-[3-(3-nitro-1H-1,2,4-triazol-1-yl)propyl] benzamide] | 310 ± 40 |
| O=C(Cn1cnc([N+](=O)[O-])n1)Nc1ccc(C23CC4CC(CC(C4)C2)C3)cc1 [7b, N-[4-(1-Adamantyl)phenyl]-2-(3-nitro-1H-1,2,4-triazol-1-yl)acetamide] | 910 ± 190 |
| O=C(NCCc1ccc(C2C3CC4CC(C3)CC2C4)cc1)c1ccc([N+](=O)[O-])o1 (stereo not drawn) [2c, N-[4-(2-Adamantyl)phenethyl]-5-nitrofuran-2-carboxamide] | 73 ± 8 |

Same assay, conditions: ratio of IC50 values obtained with L6 cells and T. brucei

| Compound | S.I. (selectivity index) |
| --- | --- |
| O=C(NCCCn1cnc([N+](=O)[O-])n1)c1ccc(C23CC4CC(CC(C4)C2)C3)cc1 [6d, 4-(1-Adamantyl)-N-[3-(3-nitro-1H-1,2,4-triazol-1-yl)propyl] benzamide] | 123 |
| O=C(Cn1cnc([N+](=O)[O-])n1)Nc1ccc(C23CC4CC(CC(C4)C2)C3)cc1 [7b, N-[4-(1-Adamantyl)phenyl]-2-(3-nitro-1H-1,2,4-triazol-1-yl)acetamide] | 35 |
| O=C(NCCc1ccc(C2C3CC4CC(C3)CC2C4)cc1)c1ccc([N+](=O)[O-])o1 (stereo not drawn) [2c, N-[4-(2-Adamantyl)phenethyl]-5-nitrofuran-2-carboxamide] | 42 |

Tested on: T. cruzi intracellular amastigotes
Assay: microbe, parasite or virus in culture
Assay type: cell-based, Trypanosoma cruzi CL Brener PpyRE9h:mScarlet
Settings: Trypanosoma cruzi, 120 h; in HeLa cells, 5 days
Method: Assays were performed in 96-well black (clear bottom) microtitre plates (Corning Inc.). HeLa ^† cells were seeded at 10^4 per well, incubated for 3 days, and then infected with T. cruzi CL Brener PpyRE9h : mScarlet[25] culture form trypomastigotes (1 : 1 multiplicity of infection). After 16 hours, extracellular parasites were removed by washing in growth medium (×3), test compounds were added, and the plates incubated for 5 days. Fluorescence intensities were then determined using a BMG FLUOstar Omega plate reader (ex 545 nm, em 590 nm), and the data analysed using GraphPad Prism 9.0 software. The values were expressed as IC50/90 ± SD and are the mean of triplicate experiments.

| Compound | IC50 [nM] | IC90 [nM] |
| --- | --- | --- |
| O=C(NCCCn1cnc([N+](=O)[O-])n1)c1ccc(C23CC4CC(CC(C4)C2)C3)cc1 [6d, 4-(1-Adamantyl)-N-[3-(3-nitro-1H-1,2,4-triazol-1-yl)propyl] benzamide] | 3730 ± 440 | 8420 ± 440 |

Tested on: not listed separately
Assay: Cytotoxicity on THP-1-derived macrophages (MTT assay)
Assay type: cell-based
Settings: human, THP-1-derived macrophages (PMA-differentiated), value or interval
Method: The THP-1 cell line, a human leukemia line (ATCC® TIB-202™), was cultured in RPMI-1640 medium supplemented with 10% heat-inactivated fetal bovine serum (FBS), 2 mM. L-Glutamine, 100 IU mL^−1 penicillin/streptomycin, and 20 mM HEPES. The cells were maintained in a humidified incubator at 37 °C with 5% CO2. Subculturing was performed every three days, using 20 mL of media at a concentration of 2 × 10^5 cells per mL in a T75 flask. All cell culture reagents were purchased from Lonza Bioscience (Morrisville, NC).
The cytotoxicity of the compounds on THP-1-derived macrophages was evaluated using the colorimetric MTT assay (3-(4,5-dimethylthiazol-2-yl)-2,5-diphenyltetrazolium bromide), as described in Magoulas et al. (2021).[28] THP-1 cells were suspended in complete RPMI medium at a density of 1 × 10^6 cells per mL, and 100 μL of this suspension was seeded into each well of a 96-well plate. The cells were differentiated into macrophages by adding 40 ng mL^−1 of phorbol-myristate 13-acetate (PMA, Sigma, Saint Louis, MI, USA) for 24 hours, followed by replacement with fresh medium for an additional 24 hours. Subsequently, the cells were incubated with 100 μL of various compounds, diluted in complete RPMI medium, at concentrations ranging from 100 to 12.5 μM. Each condition was tested in triplicate. After 72 hours of incubation at 37 °C with 5% CO2, the medium was removed, and 200 μL of a 0.5 mg mL^−1 MTT solution, diluted in RPMI, was added to each well. The plates were incubated for an additional 4 hours. Following this incubation, 160 μL of the medium was removed and replaced with 160 μL of 2-propanol. Absorbance was measured at 570 nm using a Synergy 2 Multi-Mode Reader (Biotek, Winooski, VT, USA). Cytotoxicity was determined by presenting the CC50 (the concentration of the drug that reduces cell viability by 50%) interval or by calculating the CC50 value through non-linear regression analysis using GraphPad Prism version 8.1.1 for Windows (GraphPad Software, San Diego, CA, USA). The results represent the average of at least three independent experiments.

| Compound | CC50 at 72 h [nM] |
| --- | --- |
| O=C(NCCCn1cnc([N+](=O)[O-])n1)c1ccc(C23CC4CC(CC(C4)C2)C3)cc1 [6d, 4-(1-Adamantyl)-N-[3-(3-nitro-1H-1,2,4-triazol-1-yl)propyl] benzamide] | 50000 to 100000 |
| O=C(Cn1ccnc1[N+](=O)[O-])NCCc1ccc(C2C3CC4CC(C3)CC2C4)cc1 (stereo not drawn) [4c, N-[4-(2-Adamantyl)phenethyl]-2-(2-nitro-1H-imidazol-1-yl)acetamide] | > 50000 |
| O=C(Cn1ccnc1[N+](=O)[O-])NCCc1ccc(C23CC4CC(CC(C4)C2)C3)cc1 [3c, N-[4-(1-Adamantyl)phenethyl]-2-(2-nitro-1H-imidazol-1-yl) acetamide] | 50000 to 100000 |
| O=C(NCCc1ccc(C2C3CC4CC(C3)CC2C4)cc1)c1ccc([N+](=O)[O-])o1 (stereo not drawn) [2c, N-[4-(2-Adamantyl)phenethyl]-5-nitrofuran-2-carboxamide] | 3130 to 12500 |
| O=C(Cc1ccc(C23CC4CC(CC(C4)C2)C3)cc1)NCCCn1ccnc1[N+](=O)[O-] [5b, 2-[4-(1-Adamantyl)phenyl]-N-[3-(2-nitro-1H-imidazol-1-yl)propyl] acetamide] | 50000 to 100000 |
| O=C(NCCc1ccc(C23CC4CC(CC(C4)C2)C3)cc1)c1ccc([N+](=O)[O-])o1 [1b] | 50000 to 100000 |

Tested on: T. cruzi epimastigotes
Assay: Activity against Trypanosoma cruzi epimastigotes (Alamar Blue growth inhibition)
Assay type: cell-based, Trypanosoma cruzi (strain CL Brener)
Settings: CL Brener
Method: as §1, with “Trypanocidal” for “Bloodstream form T. brucei (strain 427) were cultured at 37 °C in modified Iscove's medium. Trypanocidal”, “4 days” for “48 hours”, “28” for “37”, “Blue (Biosource UK Ltd)” for “Blue”, “3 days” for “overnight”

| Compound | IC50 [nM] | IC90 [nM] |
| --- | --- | --- |
| O=C(Cn1cnc([N+](=O)[O-])n1)Nc1ccccc1C12CC3CC(CC(C3)C1)C2 [7c, N-[2-(1-Adamantyl)phenyl]-2-(3-nitro-1H-1,2,4-triazol-1-yl)acetamide] | > 25000 | > 25000 |
| O=C(NCCCn1cnc([N+](=O)[O-])n1)c1ccc(C23CC4CC(CC(C4)C2)C3)cc1 [6d, 4-(1-Adamantyl)-N-[3-(3-nitro-1H-1,2,4-triazol-1-yl)propyl] benzamide] | 450 ± 10 | 1100 ± 20 |
| O=C(NCCc1ccc(C2C3CC4CC(C3)CC2C4)cc1)c1ccc([N+](=O)[O-])o1 (stereo not drawn) [2c, N-[4-(2-Adamantyl)phenethyl]-5-nitrofuran-2-carboxamide] | 280 ± 80 | 1200 ± 80 |

Tested on: L6 cells
Assay: Cytotoxic activity against rat skeletal myoblast L6 cells (Alamar Blue)
Assay type: cell-based
Settings: 120 h, cytotoxicity, 5 days
Method: The cytotoxicity against mammalian cells was assessed using microtitre plates. Briefly, L6 cells (a rat skeletal muscle line) were seeded at 1 × 10^4 mL^−1 in 200 μL of RPMI-1640 growth medium (with 10% fetal calf serum) containing 7 different compound concentrations in a range previously established to encompass both the IC50 and IC90 values. The plates were incubated for 5 days at 37 °C and 20 μL Alamar Blue (Biosource Ltd, Wilton, North Yorkshire England.) was then added to each well. After an additional 8 hours incubation, the fluorescence was determined using a Gemini fluorescent plate reader (Molecular Devices). Inhibition of growth was calculated by comparison with control values and IC50 and IC90 values were determined in triplicate using linear regression analysis.

| Compound | IC50 [nM] |
| --- | --- |
| O=C(NCCCn1cnc([N+](=O)[O-])n1)c1ccc(C23CC4CC(CC(C4)C2)C3)cc1 [6d, 4-(1-Adamantyl)-N-[3-(3-nitro-1H-1,2,4-triazol-1-yl)propyl] benzamide] | 22000 ± 1000 |
| O=C(Cn1cnc([N+](=O)[O-])n1)Nc1ccc(C23CC4CC(CC(C4)C2)C3)cc1 [7b, N-[4-(1-Adamantyl)phenyl]-2-(3-nitro-1H-1,2,4-triazol-1-yl)acetamide] | 7100 ± 300 |
| O=C(NCCc1ccc(C2C3CC4CC(C3)CC2C4)cc1)c1ccc([N+](=O)[O-])o1 (stereo not drawn) [2c, N-[4-(2-Adamantyl)phenethyl]-5-nitrofuran-2-carboxamide] | 1800 ± 200 |
